Entries after “also recorded” stand apart in the source; their conditions may differ.

Here are results for two molecules from patent US20070286886A1, “Materials And Methods For Inducing Apoptosis In Adipocytes” (University of Tennessee Research Foundation, priority 2004, published 2007).

Type in all cases: cell-based
In assay [1] the test system is 3T3-L1 and UCP2-transfected 3T3-L1 cells. The experiment in a line: Mitochondrial membrane potential (JC-1 fluorometry) in adipocytes. The settings on record: for mitochondrial potential: 4 h. The protocol:
Adipocytes were incubated with adipocyte medium for 4 h with or without 1α,25-(OH)2-D3. Mitochondrial membrane potential was analyzed fluorometrically with a lipophilic cationic dye JC-1 (5,5′,6,6′-tetrachloro-1,1′,3,3′-tetraethylbenzimidazol carbocyanine iodide) using a mitochondrial potential detection kit (Biocarta, San Diego, Calif.). Mitochondrial potential was determined as the ratio of red fluorescence (excitation 550 nm, emission 600 nm) and green fluorescence (excitation 485 nm, emission 535 nm) using a fluorescence microplate reader.
Adipocytes were incubated with adipocyte medium for 4 h with or without GDP, BK 8644, GDP plus BK8644. Mitochondrial membrane potential was analyzed fluorometrically with a lipophilic cationic dye JC-1 (5,5′,6,6′-tetrachloro-1,1′,3,3′-tetraethylbenzimidazol carbocyanine iodide) using a mitochondrial potential detection kit (Biocarta, San Diego, Calif.). Mitochondrial potential was determined as the ratio of red fluorescence (excitation 550 nm, emission 600 nm) and green fluorescence (excitation 485 nm, emission 535 nm) using a fluorescence microplate reader.

The test system of a further assay is caspase-3. The experiment in a line: Caspase-3 mRNA expression by real-time PCR in 3T3-L1 and UCP2-transfected 3T3-L1 adipocytes. The method, then: 3T3-L1 preadipocytes were incubated at a density of 8000 cells/cm2 (10 cm2 dish) and grown in Dulbecco's modified Eagle's medium (DMEM) containing 10% FBS and antibiotics (adipocyte medium) at 37° C. in 5% CO2 in air. Confluent preadipocytes were induced to differentiate with a standard differentiation medium consisting of DMEM-F10 (1:1, vol/vol) medium supplemented with 1% FBS, 1 μM dexamethasone, IBMX (0.5 mM), and antibiotics (1% penicillin-streptomycin). Preadipocytes were maintained in this differentiation medium for 3 days and subsequently cultured in adipocyte medium. Cultures were re-fed every 2-3 days to allow 90% cells to reach full differentiation before they were chemically treated. Chemicals were freshly diluted in adipocyte medium before treatment. Cells were washed with fresh adipocyte medium, re-fed with medium containing the different treatments, and incubated at 37° C. in 5% CO2 in air before analysis. Cell viability was measured via trypan blue exclusion.
UCP2 full-length cDNAs were amplified by […] using mRNAs isolated from mouse white adipose tissues. The PCR primers for this amplification are shown as follows: UCP2 forward, 5′-[…]-3′, reverse, 5′-[…]-3′. The PCR products were then subcloned into pcDNA4/His expression vectors. The linearized constructs were transfected into 3T3-L1 preadipocytes using lipofectamine plus standard protocol (Invitrogen, Carlsbad, Calif.). After 48 h of transfection, cells were split and cultured in selective medium containing 400 ug/ml zeocin for the selection of resistant colonies. Cells were fed with selective medium every 3 days until resistant colonies could be identified. These resistant foci were picked, expanded, tested for expression, and frozen for future experiments.
A total cellular RNA isolation kit (Ambion, Austin, Tex.) was used to extract total RNA from 3T3-L1 cells according to the manufacturer's instructions.
Adipocyte caspase-1, caspase-3, Bcl-2, and Bax mRNA were quantitatively measured using a Smart Cycler Real Time PCR System (Cepheid, Sunnyvale, Calif.) with a TaqMan 1000 Core Reagent Kit (Applied Biosystems, Branchburg, N.J.). The primers and probe sets were ordered from Applied Biosystems TaqMan Assays-on-Demand Gene Expression primers and probe set collection according to the manufacturer's instructions. Pooled 3T3-L1 adipocyte total RNA was serial-diluted in the range of 1.5625-25 ng and used to establish a standard curve; total RNAs for unknown samples were also diluted in this range. Reactions of quantitative RT-PCR for standards and unknown samples were Cepheid, Sunnyvale, Calif.) and TaqMan Real Time PCR Core Kit. The mRNA quantitation for each sample was further normalized using the corresponding 18 s quantitation, with a forward primer, 5′-[…]-3′, and a reverse primer, 5′-[…]-3′.
3T3-L1 preadipocytes were incubated at a density of 8000 cells/cm2 (10 cm2 dish) and grown in Dulbecco's modified Eagle's medium (DMEM) containing 10% FBS and antibiotics at 37° C. in 5% CO2. Confluent preadipocytes were induced to differentiate with a standard differentiation medium consisting of DMEM-F 10 (1:1, vol/vol) medium supplemented with 1% FBS, 1 μM dexamethasone, IBMX (0.5 mM) and antibiotics (1% penicillin/streptomycin). Preadipocytes were maintained in this differentiation medium for 3 days and subsequently cultured in adipocyte medium. Cultures were re-fed every 2-3 days to allow 90% cells to reach fully differentiation before conducting chemical treatment. Chemicals were freshly diluted in adipocyte medium before treatment. Cells were washed with fresh adipocyte medium, re-fed with medium containing the different treatments, and incubated at 37° C. in 5% CO2 in air before analysis. Cell viability was measured via trypan blue exclusion.
Adipocytes were incubated with adipocyte medium for 24 h with or without GDP, BK 8644, GDP plus BK8644 before total RNA extraction. […]
(Real-time PCR tracks product formation cycle by cycle.)

Assay [2] deals with 3T3-L1 and UCP2-transfected 3T3-L1 adipocytes. In words: Mitochondrial calcium (rhod-2 AM fluorescence) in adipocytes. The protocol:
(§1) Rhod-2/AM was used for qualitative measurement of [Ca^2+]m. Cells were incubated with the Ca^2+-sensitive fluorescent indicator rhod-2 AM (1-1.5 μM) for at least 1 h at 37° C. in 5% CO2 in humidified air. Because rhod-2 AM consists of a cationic rhodamine molecule, it accumulates preferentially inside the mitochondria due to their negative membrane potential. After loading, the cells were kept in rhod-2 AM-free standard solution for at least 1 h to allow conversion of the dye to its Ca^2+-sensitive, free acid form. Images of [Ca^2+]m were acquired at the wavelength of 552 nm excitation and 590 nm emission using the intracellular imaging system described above. Because rhod-2 is not a ratiometric dye, its fluorescence intensity was not calibrated to obtain absolute values of [Ca^2+]m. Instead, only relative values were recorded as fluorescence signal (F) relative to the control value (F0). After baseline calcium concentration was measured, the 1α,25-(OH)2-D3 was immediately applied to the cells and the calcium concentration was measured again.
as §1, with “the Ca^2+ sensitive” for “the Ca^2+-sensitive”, “AM (1-1·5 μM),” for “AM (1-1.5 μM)”, “at 370 degrees Celsius” for “at 37° C.”, “air. Since” for “air. Because”, “above. Since” for “above. Because”, “(F0).” for “(F0). After baseline calcium concentration was measured, the 1α,25-(OH)2-D3 was immediately applied to the cells and the calcium concentration was measured again.”

Consider `COC(=O)C1=C(C)NC(C)=C([N+](=O)[O-])C1c1ccccc1C(F)(F)F` (stereo not drawn) [Bay K 8644], for which the “effect on mitochondrial potential” value in assay [1] (3T3-L1 cells, BK8644 alone) is reported as “no effect”. In the assay on caspase-3 (3T3-L1 cells, Bay K 8644 5-100 nM range of FIG. 15), the caspase-3 expression entry is “dose-dependently”. For the same molecule, in assay [2] (3T3-L1 cells, p<0.05), the mitochondrial calcium result is given as “increased”.

For the molecule `C=C1/C(=C\C=C2/CCC[C@]3(C)[C@@H]([C@H](C)CCCC(C)(C)O)CC[C@@H]23)C[C@@H](O)C[C@@H]1O` [1α,25-(OH)2-D3, 1α,25-dihydroxyvitamin D3], the mitochondrial potential entry in assay [1] (high dose (100 nM)) was “collapse”; in assay [1] (lower doses, 3T3-L1 and UCP2 stably transfected 3T3-L1 cells), “significantly increase”. Also, the “mitochondrial Δψ in L1-UCP2 cells” value in assay [1] (physiological doses (0.1-10 nM), L1-UCP2 cells) is on record as “restored”. The caspase-3 expression result in the assay with caspase-3 (high dose 100 nM, 24 h, control and UCP2-transfected 3T3-L1 cells, P<0.01) is given as “stimulated”; in the assay with caspase-3 (physiological low doses 0.1 nM, 1 nM, 5 nM, 10 nM, 24 h, control and UCP2-transfected 3T3-L1 cells, P<0.05), “inhibited”. The “mitochondrial calcium [Ca2+]m” value in assay [2] (high dose (100 nM)) was “significantly stimulated”; in assay [2] (low doses (0.1 nM to 10 nM), control and UCP2-transfected cells), “decreased; also recorded: significant decreases”. In addition, in assay [2] (high dose (100 nM), P<0.05), the “increase of mitochondrial Ca2+” value is 25%. The “suppression of mitochondrial Ca2+ levels” value in assay [2] (physiological doses (0.1-10 nM)) was around 50%.
